Laboratory results reported in US7435837B2, “Dihydrobenzofuranyl alkanamine derivatives and methods for using same” (Wyeth, priority 2003, dated 2008).
pEC50, pKi: −log10 of the molar value.

Assays:
[1] = target: T1, human 5-hydroxytryptamine-2C (h5-HT2C) receptor (Homo sapiens, UniProt P28335); experiment: [125I]DOI binding to membranes of CHO cells expressing the human 5-HT2C receptor; details: [125I]DOI radioligand, CHO cell membranes, room temperature 60 min; read-out: 5-HT2C Affinity Ki
T1 construct: expressed in transfected cells; host or cells: CHO (Chinese Hamster Ovary) cells; membranes
T1 sequence (P28335 33-458): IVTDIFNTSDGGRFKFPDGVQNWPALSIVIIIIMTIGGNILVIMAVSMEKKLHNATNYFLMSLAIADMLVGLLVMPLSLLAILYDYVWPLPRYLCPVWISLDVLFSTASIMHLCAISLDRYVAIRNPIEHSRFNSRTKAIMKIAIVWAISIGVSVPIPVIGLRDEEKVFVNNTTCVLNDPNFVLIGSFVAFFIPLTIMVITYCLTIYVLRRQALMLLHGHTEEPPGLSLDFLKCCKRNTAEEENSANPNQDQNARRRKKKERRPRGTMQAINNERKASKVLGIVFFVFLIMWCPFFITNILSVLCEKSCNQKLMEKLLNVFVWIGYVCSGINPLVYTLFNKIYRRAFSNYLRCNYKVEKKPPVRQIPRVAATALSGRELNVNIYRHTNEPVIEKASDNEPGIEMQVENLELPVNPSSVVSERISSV

human 5-HT2C receptor = target: T2, human 5-HT2C receptor (Homo sapiens, UniProt P28335); experiment: 5-HT2C receptor-stimulated calcium mobilization (FLIPR) in CHO cells; assay type: cell-based; details: for Emax: CHO, read-out: 5-HT2C Function Emax (%); for Emax / 5-HT2C Function Emax (%): percentage of the response observed with a maximally effective concentration of 5-HT; for pEC50: calcium mobilization, CHO cells stably expressing human 5-HT2C, read-out: 5-HT2C Function EC50;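 on all read-outs here: Fluo-3-AM fluorescence read on FLIPR every 1 s, agonist added after 10 baseline reads, response taken as peak minus lowest raw fluorescence count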
T2 sequence (P28335 33-458): T1 sequence (P28335 33-458)

SMILES | pKi [1] | Emax (human 5-HT2C receptor) [%] | pEC50 (human 5-HT2C receptor) | 5-HT2C Function Emax (%) (human 5-HT2C receptor)
Cc1cccc(-c2cc(C)cc3c2OC(CN)C3)c1 (racemic) [Example 289, (±)-{[7-(3-methylphenyl)-5-methyl-2,3-dihydro-1-benzofuran-2-yl]methyl}amine] | 9.00 | 100 | 7.36 | 
NCC1Cc2cc(Cl)cc(-c3ccccc3Cl)c2O1 (racemic) [Example 87, (±)-1-[5-chloro-7-(2-chlorophenyl)-2,3-dihydro-1-benzofuran-2-yl]methanamine] | 9.10 | 90 | 7.70 | 
CC(C)NCC1Cc2cccc(-c3c(Cl)cccc3Cl)c2O1 (racemic) [Example 393, (±)-N-{[7-(2,6-dichlorophenyl)-2,3-dihydro-1-benzofuran-2-yl]methyl}propan-2-amine] | 7.67 | 60 | 7.35 | 
COc1ccc(OC)c(-c2cc(OC)cc3c2OC(CN)C3)c1 (racemic) [Example 371, (±)-{[7-(2,5-dimethoxyphenyl)-5-methoxy-2,3-dihydro-1-benzofuran-2-yl]methyl}amine] | 7.85 | 80 | 7.19 | 
CNCC1Cc2cc(C)cc(-c3ccccc3Cl)c2O1 (racemic) [Example 476, (±)-{[7-(2-chlorophenyl)-5-methyl-2,3-dihydro-1-benzofuran-2-yl]methyl}methylamine] | 9.70 | 100 | 8.30 | 
CNCC1Cc2cc(C)cc(-c3ccc(F)cc3)c2O1 (racemic) [Example 482, (±)-{[7-(4-fluorophenyl)-5-methyl-2,3-dihydro-1-benzofuran-2-yl]methyl}methylamine] | 8.15 | 80 | 6.84 | 
CNCC1Cc2cc(OC)cc(-c3c(C)cccc3C)c2O1 (racemic) [Example 504, (±)-{[7-(2,6-dimethylphenyl)-5-methoxy-2,3-dihydro-1-benzofuran-2-yl]methyl}methylamine] | 8.92 | 90 | 7.57 | 
NCC1Cc2cccc(-c3c(Cl)cccc3Cl)c2O1 (racemic) [Example 140, (±)-1-[7-(2,6-dichlorophenyl)-2,3-dihydro-1-benzofuran-2-yl]methanamine] | 9.52 | 90 | 9.14 | 
CNCC1Cc2cc(OC)cc(-c3ccc(F)cc3F)c2O1 (racemic) [Example 497, (±)-{[7-(2,4-difluorophenyl)-5-methoxy-2,3-dihydro-1-benzofuran-2-yl]methyl}methylamine] | 7.43 | 70 | 6.50 | 
NCC1Cc2cc(Cl)cc(-c3ccccc3)c2O1 (single isomer, unassigned; (+)) [Example 85, (+)-1-(5-chloro-7-phenyl-2,3-dihydro-1-benzofuran-2-yl)methanamine] | 8.30 | 100 | 6.25 | 
NCC1Cc2cc(F)cc(-c3c(Cl)cccc3Cl)c2O1 (single isomer, unassigned; (+)) [Example 551, (+)-{[7-(2,6 dichlorophenyl)-5-fluoro-2,3-dihydro-1-benzofuran-2-yl]methyl}amine] | 9.26 | 90 | 7.77 | 
CNCC1Cc2cccc(-c3ccccc3F)c2O1 (racemic) [Example 412, (±)-[(N-methyl-1-[7-(2-fluorophenyl)-2,3-dihydro-1-benzofuran-2-yl]methanamine] | 8.28 | 90 | 7.47 | 
NCC1Cc2cccc(C3CCCC3)c2O1 (single isomer, unassigned; (-)) [Example 9, (−)-(7-cyclopentyl-2,3-dihydro-1-benzofuran-2-yl)methylamine] | 8.00 |  | 6.71 | 85
CNCC1Cc2ccc(F)c(-c3ccccc3Cl)c2O1 (racemic) [Example 402, (±)-{[6-fluoro-7-(2-chlorophenyl)-2,3-dihydro-1-benzofuran-2-yl]methyl}methylamine] | 9.62 | 90 | 10.00 | 
NCC1Cc2cc(F)cc(-c3ccccc3Cl)c2O1 (single isomer, unassigned; (-)) [Example 102, (−)-1-[7-(2-chlorophenyl)-5-fluoro-2,3-dihydro-1-benzofuran-2-yl]methanamine] | 8.10 |  | 7.49 | 65
CNCC1Cc2cc(F)cc(-c3cc(C)ccc3OC)c2O1 (racemic) [Example 457, (±)-{[5-fluoro-7-(2-methoxy-5-methylphenyl)-2,3-dihydro-1-benzofuran-2-yl]methyl}methylamine] | 7.42 | 50 | 6.13 | 

SMILES | pKi [1] | Emax (human 5-HT2C receptor) [%] | pEC50 (human 5-HT2C receptor) | 5-HT2C Function Emax (%) (human 5-HT2C receptor)
NCC1Cc2cccc(-c3c(Cl)cc(Cl)cc3Cl)c2O1 (racemic) [Example 166, (±)-{[7-(2,4,6-trichlorophenyl)-2,3-dihydro-1-benzofuran-2-yl]methyl}amine] | 8.10 | 90 | 9.70 | 
NCC1Cc2cc(Cl)cc(-c3cccc(F)c3F)c2O1 (racemic) [Example 244, (±)-{[5-chloro-7-(2,3-difluorophenyl)-2,3-dihydro-1-benzofuran-2-yl]methyl}amine] | 9.13 | 90 | 7.28 | 
NCC1Cc2cc(F)cc(-c3ccccn3)c2O1 (racemic) [Example 205, (±)-[(5-fluoro-7-pyridin-2-yl-2,3-dihydro-1-benzofuran-2-yl)methyl]amine] | 8.52 | 80 | 6.55 | 
COc1cc2c(c(-c3cccc(C)c3C)c1)OC(CN)C2 (racemic) [Example 363, (±)-{[7-(2,3-dimethylphenyl)-5-methoxy-2,3-dihydro-1-benzofuran-2-yl]methyl}amine] | 7.59 | 70 | 6.65 | 
NCC1Cc2cc(Cl)cc(-c3cccc(F)c3F)c2O1 (single isomer, unassigned; (-)) [Example 245, (−)-{[5-chloro-7-(2,3-difluorophenyl)-2,3-dihydro-1-benzofuran-2-yl]methyl}amine] | 8.70 | 100 | 7.24 | 
Cc1ccc(C)c(-c2cc(F)cc3c2OC(CN)C3)c1 (racemic) [Example 222, (±)-{[7-(2,5-dimethylphenyl)-5-fluoro-2,3-dihydro-1-benzofuran-2-yl]methyl}amine] | 7.74 | 80 | 6.92 | 
NCC1Cc2cc(Cl)cc(-c3ccoc3)c2O1 (racemic) [Example 243, (±)-{[5-chloro-7-(3-furyl)-2,3-dihydro-1-benzofuran-2-yl]methyl}amine] | 9.60 | 90 | 7.30 | 
COc1cccc(-c2cccc3c2OC(CN)C3)c1OC (racemic) [Example 155, (±)-{[7-(2,3-dimethoxyphenyl)-2,3-dihydro-1-benzofuran-2-yl]methyl}amine] | 8.05 | 90 | 7.37 | 
CNCC1Cc2cc(C)cc(-c3ccc(C)cc3)c2O1 (racemic) [Example 480, (±)-{[7-(4-methylphenyl)-5-methyl-2,3-dihydro-1-benzofuran-2-yl]methyl}methylamine] | 8.36 | 70 | 6.60 | 
CNCC1Cc2cc(C)cc(-c3cccc(C)c3)c2O1 (racemic) [Example 478, (±)-{[7-(3-methylphenyl)-5-methyl-2,3-dihydro-1-benzofuran-2-yl]methyl}methylamine] | 7.96 | 70 | 6.65 | 
CNCC1Cc2cc(C(F)(F)F)cc(-c3ccccc3)c2O1 (racemic) [Example 518, (±)-{[N-methyl-1-[7-phenyl-5-(trifluoromethyl)-2,3-dihydro-1-benzofuran-2-yl]methanamine] | 7.40 | 80 | 6.42 | 
NCC1Cc2cc(F)cc(-c3c(F)cccc3F)c2O1 (racemic) [Example 226, (±)-{[7-(2,6-difluorophenyl)-5-fluoro-2,3-dihydro-1-benzofuran-2-yl]methyl}amine] | 8.89 | 90 | 7.52 | 
Cc1ccccc1-c1cccc2c1OC(CN)C2 (racemic) [Example 47, (±)-1-[7-(2-methylphenyl)-2,3-dihydro-1-benzofuran-2-yl]methanamine] | 9.40 | 100 | 8.27 | 
CNCC1Cc2cc(F)cc(-c3ccccc3C)c2O1 (single isomer, unassigned; (+)) [Example 442, (+)-{[5-fluoro-7-(2-methylphenyl)-2,3-dihydro-1-benzofuran-2-yl]methyl}methylamine] | 9.70 |  | 8.22 | 90
Cc1cccc(C)c1-c1cc(F)cc2c1OC(CN)C2 (single isomer, unassigned; (-)) [Example 229, (−)-{[7-(2,6-dimethylphenyl)-5-fluoro-2,3-dihydro-1-benzofuran-2-yl]methyl}amine] | 9.40 |  | 8.22 | 100
Cc1c(Cl)cc(C(C)C)c2c1CC(CN)O2 (racemic) [Example 21, (±)-1-(5-chloro-7-isopropyl-4-methyl-2,3-dihydro-1-benzofuran-2-yl)methanamine] | 8.05 | 85 | 7.07 | 
